Starred links: 1 amine or outer side, 2 acyl side, 3 side chain; linkers in the order of their positions; H or OH if unused. Positions of bridges follow the written chain, without caps; N, C: chain ends. Non-standard residues stand in square brackets, D forms with d. Residues, ends and D or L forms follow the SMILES beside them. X51 = O=C([C@H](CCNC[C@@H](O)[C@@H](O)[C@H](O)[C@H](O)C(O)CO)N[*:1])[*:2]; X50 = O=C([C@H](CNC[C@@H](O)[C@@H](O)[C@H](O)[C@H](O)C(O)CO)N[*:1])[*:2]; Trp(1-CH2COOH) = N[C@@H](Cc1cn(CC(=O)O)c2ccccc12)C(=O)O; X55 = O=C([C@H](CCNCc1cccc2ccc3ccccc3c12)N[*:1])[*:2]; X12 = O=C([C@H](CNCc1cccc2ccc3ccccc3c12)N[*:1])[*:2]; X13 = O=C([C@H](CNCc1cccc2[nH]ccc12)N[*:1])[*:2]; X37 = O=C([C@H](CNCC[C@@H](O)C(O)CO)N[*:1])[*:2]; X38 = O=C([C@H](CCNCC[C@H](O)C(O)CO)N[*:1])[*:2]; X23 = O=C([C@H](CCNCc1cc2ccccc2o1)N[*:1])[*:2]; X22 = O=C([C@H](CNCc1cc2ccccc2o1)N[*:1])[*:2]; Hyp = O=C(O)[C@@H]1C[C@@H](O)CN1; NMeNle = CCCC[C@H](NC)C(=O)O; NMeA = CN[C@@H](C)C(=O)O; Dab = NCC[C@H](N)C(=O)O
Molecular target: T1, PD-1/PD-L1 (Homo sapiens, UniProt Q9NZQ7)
T1 construct: TVMV protease site (linker) (C); made in house; host or cells: HEK293T cells
T1 sequence (Q9NZQ7 18-239): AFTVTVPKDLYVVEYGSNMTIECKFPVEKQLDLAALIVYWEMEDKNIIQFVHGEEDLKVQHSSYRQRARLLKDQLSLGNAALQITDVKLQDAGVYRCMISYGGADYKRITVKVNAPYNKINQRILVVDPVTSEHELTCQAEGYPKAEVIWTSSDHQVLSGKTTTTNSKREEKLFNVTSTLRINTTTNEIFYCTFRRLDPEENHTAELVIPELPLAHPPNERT
Experiment: PD-1/PD-L1 Homogenous Time-Resolved Fluorescence (HTRF) binding assay
Settings: PD-L1-His 10 nM, PD-1-Ig 20 nM
Summary of the method: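 Compounds preincubated 15 min with PD-L1-His (residues 18-239, 10 nM) in dPBS with 0.1% BSA, 0.05% Tween-20, then PD-1-Ig (residues 25-167, 20 nM) for 15 min. Eu-cryptate anti-Ig (1 nM) and APC anti-His (20 nM) equilibrated 30 min; 665/620 nm ratio read, IC50 derived.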

| SMILES | IC50 [nM] |
| --- | --- |
| CCCC[C@H]1C(=O)N(C)[C@@H](CCCC)C(=O)N[C@@H](CC(C)C)C(=O)N[C@H](C(=O)NCC(N)=O)CSCC(=O)N[C@@H](Cc2ccc(O)cc2)C(=O)N(C)[C@@H](C)C(=O)N[C@@H](CC(N)=O)C(=O)N2CCC[C@H]2C(=O)N[C@@H](CNCc2cc3ccccc3o2)C(=O)N[C@@H](CC(C)C)C(=O)N2C[C@H](O)C[C@H]2C(=O)N[C@@H](Cc2c[nH]c3ccccc23)C(=O)N[C@@H](CCNCc2cc3ccccc3o2)C(=O)N[C@@H](Cc2cn(CC(=O)O)c3ccccc23)C(=O)N1C [Example 1010] ({CH2CO}-Y[NMeA]NP[X22]L[Hyp]W[X23][Trp(1-CH2COOH)][NMeNle][NMeNle]LCG-NH2; thioether N-14) | 12 |
| CCCC[C@H]1C(=O)N(C)[C@@H](CCCC)C(=O)N[C@@H](CC(C)C)C(=O)N[C@H](C(=O)NCC(N)=O)CSCC(=O)N[C@@H](Cc2ccc(O)cc2)C(=O)N(C)[C@@H](C)C(=O)N[C@@H](CC(N)=O)C(=O)N2CCC[C@H]2C(=O)N[C@@H](CNCc2cccc3ccc4ccccc4c23)C(=O)N[C@@H](CC(C)C)C(=O)N2C[C@H](O)C[C@H]2C(=O)N[C@@H](Cc2c[nH]c3ccccc23)C(=O)N[C@@H](CCN)C(=O)N[C@@H](Cc2cn(CC(=O)O)c3ccccc23)C(=O)N1C [Example 1005] ({CH2CO}-Y[NMeA]NP[X12]L[Hyp]W[Dab][Trp(1-CH2COOH)][NMeNle][NMeNle]LCG-NH2; thioether N-14) | 120 |
| CCCC[C@H]1C(=O)N(C)[C@@H](CCCC)C(=O)N[C@@H](CC(C)C)C(=O)N[C@H](C(=O)NCC(N)=O)CSCC(=O)N[C@@H](Cc2ccc(O)cc2)C(=O)N(C)[C@@H](C)C(=O)N[C@@H](CC(N)=O)C(=O)N2CCC[C@H]2C(=O)N[C@@H](CNCc2cccc3ccc4ccccc4c23)C(=O)N[C@@H](CC(C)C)C(=O)N2C[C@H](O)C[C@H]2C(=O)N[C@@H](Cc2c[nH]c3ccccc23)C(=O)N[C@@H](CCNCc2cccc3ccc4ccccc4c23)C(=O)N[C@@H](Cc2cn(CC(=O)O)c3ccccc23)C(=O)N1C [Example 1022] ({CH2CO}-Y[NMeA]NP[X12]L[Hyp]W[X55][Trp(1-CH2COOH)][NMeNle][NMeNle]LCG-NH2; thioether N-14) | 1400 |
| CCCC[C@H]1C(=O)N(C)[C@@H](CCCC)C(=O)N[C@@H](CC(C)C)C(=O)N[C@H](C(=O)NCC(N)=O)CSCC(=O)N[C@@H](Cc2ccc(O)cc2)C(=O)N(C)[C@@H](C)C(=O)N[C@@H](CC(N)=O)C(=O)N2CCC[C@H]2C(=O)N[C@@H](CNCc2cccc3[nH]ccc23)C(=O)N[C@@H](CC(C)C)C(=O)N2C[C@H](O)C[C@H]2C(=O)N[C@@H](Cc2c[nH]c3ccccc23)C(=O)N[C@@H](CCN)C(=O)N[C@@H](Cc2cn(CC(=O)O)c3ccccc23)C(=O)N1C [Example 1015] ({CH2CO}-Y[NMeA]NP[X13]L[Hyp]W[Dab][Trp(1-CH2COOH)][NMeNle][NMeNle]LCG-NH2; thioether N-14) | 5.1 |

Continued, values first:

| IC50 [nM] | SMILES |
| --- | --- |
| 8.9 | CCCC[C@H]1C(=O)N(C)[C@@H](CCCC)C(=O)N[C@@H](CC(C)C)C(=O)N[C@H](C(=O)NCC(N)=O)CSCC(=O)N[C@@H](Cc2ccc(O)cc2)C(=O)N(C)[C@@H](C)C(=O)N[C@@H](CC(N)=O)C(=O)N2CCC[C@H]2C(=O)N[C@@H](CNC[C@@H](O)[C@@H](O)[C@H](O)[C@H](O)C(O)CO)C(=O)N[C@@H](CC(C)C)C(=O)N2C[C@H](O)C[C@H]2C(=O)N[C@@H](Cc2c[nH]c3ccccc23)C(=O)N[C@@H](CCNC[C@@H](O)[C@@H](O)[C@H](O)[C@H](O)C(O)CO)C(=O)N[C@@H](Cc2cn(CC(=O)O)c3ccccc23)C(=O)N1C (stereo partly shown) [Example 2021] ({CH2CO}-Y[NMeA]NP[X50]L[Hyp]W[X51][Trp(1-CH2COOH)][NMeNle][NMeNle]LCG-NH2; thioether N-14) |
| 9.1 | CCCC[C@H]1C(=O)N(C)[C@@H](CCCC)C(=O)N[C@@H](CC(C)C)C(=O)N[C@H](C(=O)NCC(N)=O)CSCC(=O)N[C@@H](Cc2ccc(O)cc2)C(=O)N(C)[C@@H](C)C(=O)N[C@@H](CC(N)=O)C(=O)N2CCC[C@H]2C(=O)N[C@@H](CNC[C@@H](O)[C@@H](O)[C@H](O)[C@H](O)C(O)CO)C(=O)N[C@@H](CC(C)C)C(=O)N2C[C@H](O)C[C@H]2C(=O)N[C@@H](Cc2c[nH]c3ccccc23)C(=O)N[C@@H](CCN)C(=O)N[C@@H](Cc2cn(CC(=O)O)c3ccccc23)C(=O)N1C (stereo partly shown) [Example 2031] ({CH2CO}-Y[NMeA]NP[X50]L[Hyp]W[Dab][Trp(1-CH2COOH)][NMeNle][NMeNle]LCG-NH2; thioether N-14) |
| 6.7 | CCCC[C@H]1C(=O)N(C)[C@@H](CCCC)C(=O)N[C@@H](CC(C)C)C(=O)N[C@H](C(=O)NCC(N)=O)CSCC(=O)N[C@@H](Cc2ccc(O)cc2)C(=O)N(C)[C@@H](C)C(=O)N[C@@H](CC(N)=O)C(=O)N2CCC[C@H]2C(=O)N[C@@H](CNCC[C@@H](O)C(O)CO)C(=O)N[C@@H](CC(C)C)C(=O)N2C[C@H](O)C[C@H]2C(=O)N[C@@H](Cc2c[nH]c3ccccc23)C(=O)N[C@@H](CCNCC[C@H](O)C(O)CO)C(=O)N[C@@H](Cc2cn(CC(=O)O)c3ccccc23)C(=O)N1C (stereo partly shown) [Example 2038] ({CH2CO}-Y[NMeA]NP[X37]L[Hyp]W[X38][Trp(1-CH2COOH)][NMeNle][NMeNle]LCG-NH2; thioether N-14) |
